Consider 20 compounds from ChEMBL document CHEMBL3875162, “Synthesis and biological evaluation of new benzimidazole-thiazolidinedione hybrids as potential cytotoxic and apoptosis inducing agents” (Eur J Med Chem, 2016).

Usually IC50 stands for the point on the concentration scale where inhibition reaches its midpoint.

A short description of data set [1]: Cytotoxicity against human MCF10A cells assessed as cell growth inhibition after 48 hrs by MTT assay. In kind it is toxicity, cell-based, MCF-10A.
A short description of data set [2]: Cytotoxicity against human A549 cells assessed as cell growth inhibition after 48 hrs by MTT assay. Type of data set: functional, cell-based. The settings on record: A549, 48 h.
A short description of data set [3]: Cytotoxicity against human PC3 cells assessed as cell growth inhibition after 48 hrs by MTT assay. Type of data set: functional, cell-based. To be noted: PC-3, 48 h. For orientation: Formazan colour is commonly taken as a measure of viable cells.
The nature of data set [4]: Cytotoxicity against human DU145 cells assessed as cell growth inhibition after 48 hrs by MTT assay. Type of data set: functional, cell-based. The settings on record: DU-145, 48 h.
Data set [5] can be described thus: Cytotoxicity against human MDA-MB-231 cells assessed as cell growth inhibition after 48 hrs by MTT assay. To be noted: MDA-MB-231, 48 h. In kind it is functional, cell-based.
For the next data set, the system named is A549. Kind of data set: Selectivity index, ratio of IC50 for human MCF10A cells to IC50 for human A549 cells. Type of data set: functional.

Take `COc1cc2c(cc1OC)CN(C(=O)CN1C(=O)S/C(=C\c3nc4ccccc4n3C(C)C)C1=O)CC2`: the IC50 at 48 h in data set [1] was more than 100 µM. Moreover, the 50% inhibitory concentration (IC50) in data set [2] was 20.6 µM; in data set [3], more than 50 µM; in data set [4] it was 29.7 µM; in data set [5], 30.6 µM.

Regarding `Cn1c(/C=C2\SC(=O)N(CC(=O)N3CCOCC3)C2=O)nc2ccccc21`, the 50% inhibitory concentration (IC50) in data set [2] was 38.5 µM; in data set [3], more than 50 µM; in data set [4] it was 41.1 µM; in data set [5] it was more than 50 µM.

Turning to `CC(C)n1c(/C=C2\SC(=O)N(CC(=O)N3CCCCC3)C2=O)nc2ccccc21`, the 50% inhibitory concentration (IC50) in data set [2] is 28.2 µM; in data set [3], more than 50 µM; in data set [4], 42.2 µM; in data set [5] it was more than 50 µM.

On to `CC(C)n1c(/C=C2\SC(=O)N(CC(=O)N3CCCC3)C2=O)nc2ccccc21`, for which the IC50 in data set [2], in data set [3], in data set [4] and in data set [5] was more than 50 µM each time.

For `CCn1c(/C=C2\SC(=O)N(CC(=O)N3CC(C)OC(C)C3)C2=O)nc2ccccc21` (centres undefined), the concentration for half-maximal inhibition (IC50) in data set [2], in data set [3], in data set [4] and in data set [5] was more than 50 µM in each case.

For `CCn1c(/C=C2\SC(=O)N(CC(=O)N3CCc4cc(OC)c(OC)cc4C3)C2=O)nc2ccccc21`, the half-inhibitory concentration (IC50) in data set [2] is 26.2 µM; in data set [3], 33.5 µM; in data set [4], more than 50 µM; in data set [5], more than 50 µM.

As for `CCn1c(/C=C2\SC(=O)N(CC(=O)N3CCCCC3)C2=O)nc2ccccc21`, the IC50 in data set [2], in data set [3], in data set [4] and in data set [5] was more than 50 µM each time.

For the compound `CCn1c(/C=C2\SC(=O)N(CC(=O)Nc3cc(C(C)(C)C)on3)C2=O)nc2ccccc21`, the IC50 is 44.8 µM in data set [2], more than 50 µM in data set [3], more than 50 µM in data set [4] and more than 50 µM in data set [5].

For the compound `CC1CN(C(=O)CN2C(=O)S/C(=C\c3nc4ccccc4n3C(C)C)C2=O)CC(C)O1` (centres undefined), the IC50 in data set [2], in data set [3], in data set [4] and in data set [5] was more than 50 µM in each case.

In the case of `COc1cc2c(cc1OC)CN(C(=O)CN1C(=O)S/C(=C\c3nc4ccccc4n3C)C1=O)CC2`, the IC50 at 48 h in data set [1] is more than 100 µM. Also, the concentration for half-maximal inhibition (IC50) in data set [2] was 13.3 µM; in data set [3] it was 41.1 µM; in data set [4], 37.5 µM; in data set [5], 36 µM.

In the case of `Cn1c(/C=C2\SC(=O)N(CC(=O)Nc3cc(C(C)(C)C)on3)C2=O)nc2ccccc21`, the concentration for half-maximal inhibition (IC50) at 48 h in data set [1] came to 38.7 µM. Besides, the IC50 in data set [2] is 15.3 µM; in data set [3], more than 50 µM; in data set [4] it was 31.4 µM; in data set [5] it was 33.8 µM. Also, the “Ratio IC50” value in the data set on A549 stood at 2.5.

With `CC(C)n1c(/C=C2\SC(=O)N(CC(=O)Nc3cc(C(C)(C)C)on3)C2=O)nc2ccccc21`, the IC50 in data set [2], in data set [3], in data set [4] and in data set [5] was more than 50 µM throughout.

For `CCn1c(/C=C2\SC(=O)N(CC(=O)N3CCCC3)C2=O)nc2ccccc21`, the IC50 is 31.2 µM in data set [2], more than 50 µM in data set [3], 45.1 µM in data set [4] and more than 50 µM in data set [5].

As for `CC(C)n1c(/C=C2\SC(=O)N(CC(=O)N3CCOCC3)C2=O)nc2ccccc21`, the IC50 in data set [2], in data set [3], in data set [4] and in data set [5] was more than 50 µM each time.

Regarding `CCn1c(/C=C2\SC(=O)N(CC(=O)Nc3nc(-c4ccccc4)cs3)C2=O)nc2ccccc21`, the 50% inhibitory concentration (IC50) in data set [2], in data set [3], in data set [4] and in data set [5] was more than 50 µM each time.

Regarding `Cn1c(/C=C2\SC(=O)N(CC(=O)N3CCCCC3)C2=O)nc2ccccc21`, the concentration for half-maximal inhibition (IC50) in data set [2], in data set [3], in data set [4] and in data set [5] was more than 50 µM throughout.

`CC1CN(C(=O)CN2C(=O)S/C(=C\c3nc4ccccc4n3C)C2=O)CC(C)O1` (centres undefined): the IC50 was 29.4 µM in data set [2], more than 50 µM in data set [3], more than 50 µM in data set [4] and more than 50 µM in data set [5].

`O=c1[nH]cc(F)c(=O)[nH]1` [FLUOROURACIL]: the IC50 in data set [2] is 30.5 µM; in data set [3], 45.3 µM; in data set [4], 40.6 µM; in data set [5], 36 µM.

For `Cn1c(/C=C2\SC(=O)N(CC(=O)N3CCCC3)C2=O)nc2ccccc21`, the half-maximal inhibitory concentration (IC50) in data set [2], in data set [3], in data set [4] and in data set [5] was more than 50 µM in each case.

Turning to `CCn1c(/C=C2\SC(=O)N(CC(=O)N3CCOCC3)C2=O)nc2ccccc21`, the half-maximal inhibitory concentration (IC50) in data set [2], in data set [3], in data set [4] and in data set [5] was more than 50 µM throughout.
